Assay results published in PMC8185074, “Anchor extension: a structure-guided approach to design cyclic peptides targeting enzyme active sites” (Nature Communications, 2021).
Each block holds one molecule with its values, some of them ahead of it. Peptide text beside a SMILES is read from it.

How the values were obtained:
Assay type in all cases: biochemical
[1] = target: T1, HDAC8 (Homo sapiens, UniProt Q9BY41); assay: HDAC8 inhibition, full IC50 measurement (Reaction Biology; fluorogenic p53 peptide RHKK(Ac)AMC); details: for HDAC8 activity raw data (signal): t1/t2 replicates
T1 construct: purchased Reaction Biology Corporation (assay run by the CRO)
T1 sequence (Q9BY41 1-377): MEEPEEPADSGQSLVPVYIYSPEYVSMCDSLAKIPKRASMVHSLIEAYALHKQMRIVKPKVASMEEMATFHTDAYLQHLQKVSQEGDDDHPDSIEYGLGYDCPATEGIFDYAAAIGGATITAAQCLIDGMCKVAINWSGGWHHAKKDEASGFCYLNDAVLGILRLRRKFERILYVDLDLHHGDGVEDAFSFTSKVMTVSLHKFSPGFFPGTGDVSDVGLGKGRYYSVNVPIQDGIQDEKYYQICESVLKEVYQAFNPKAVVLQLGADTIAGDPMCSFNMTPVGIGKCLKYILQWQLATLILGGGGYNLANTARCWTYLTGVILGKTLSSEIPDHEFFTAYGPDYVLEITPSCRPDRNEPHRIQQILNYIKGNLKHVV
Procedure, shortened: (§1)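 Inhibitory peptides were acoustically dispensed with enzyme, then substrate added; 1 h at 30 °C. Developer stopped reaction; plateau endpoint fluorescence (360/460 nm) gave IC50.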

[2] = target: T2, HDAC6 (Homo sapiens, UniProt Q9UBN7); assay: HDAC6 inhibition, full IC50 measurement (Reaction Biology; fluorogenic p53 peptide RHKK(Ac)AMC)
T2 construct: purchased Reaction Biology Corporation (assay run by the CRO)
T2 sequence (Q9UBN7 1-1215): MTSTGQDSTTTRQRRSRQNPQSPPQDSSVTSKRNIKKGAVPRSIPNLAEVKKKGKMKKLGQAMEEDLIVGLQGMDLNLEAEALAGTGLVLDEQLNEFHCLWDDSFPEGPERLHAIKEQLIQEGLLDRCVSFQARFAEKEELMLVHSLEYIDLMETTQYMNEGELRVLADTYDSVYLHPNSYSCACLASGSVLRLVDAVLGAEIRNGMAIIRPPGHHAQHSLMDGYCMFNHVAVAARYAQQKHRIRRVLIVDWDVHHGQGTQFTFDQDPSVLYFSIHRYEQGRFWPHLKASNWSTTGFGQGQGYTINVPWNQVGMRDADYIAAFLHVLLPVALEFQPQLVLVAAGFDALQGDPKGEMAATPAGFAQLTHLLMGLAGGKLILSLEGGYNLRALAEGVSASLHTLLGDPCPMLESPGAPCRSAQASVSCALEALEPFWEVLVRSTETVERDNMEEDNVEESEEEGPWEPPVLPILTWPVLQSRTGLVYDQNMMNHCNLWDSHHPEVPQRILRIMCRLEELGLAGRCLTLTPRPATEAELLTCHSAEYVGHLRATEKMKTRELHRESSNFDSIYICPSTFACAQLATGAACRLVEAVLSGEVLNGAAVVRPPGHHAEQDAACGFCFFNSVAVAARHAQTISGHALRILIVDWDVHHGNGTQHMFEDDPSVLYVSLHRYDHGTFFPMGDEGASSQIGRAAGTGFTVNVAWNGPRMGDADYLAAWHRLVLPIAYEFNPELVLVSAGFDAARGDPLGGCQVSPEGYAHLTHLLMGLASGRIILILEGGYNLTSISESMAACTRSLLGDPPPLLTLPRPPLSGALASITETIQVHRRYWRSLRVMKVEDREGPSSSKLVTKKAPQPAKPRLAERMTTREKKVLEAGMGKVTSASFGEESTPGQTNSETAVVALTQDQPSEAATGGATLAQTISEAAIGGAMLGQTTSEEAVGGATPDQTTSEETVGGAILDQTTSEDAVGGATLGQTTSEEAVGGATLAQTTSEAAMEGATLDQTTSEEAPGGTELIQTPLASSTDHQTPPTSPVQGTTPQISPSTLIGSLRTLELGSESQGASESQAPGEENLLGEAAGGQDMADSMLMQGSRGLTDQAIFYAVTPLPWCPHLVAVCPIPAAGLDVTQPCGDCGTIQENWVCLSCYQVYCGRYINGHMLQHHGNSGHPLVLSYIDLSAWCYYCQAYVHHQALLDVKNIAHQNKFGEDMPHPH
Procedure, shortened: as §1

[3] = target: T3, HDAC1 (Homo sapiens, UniProt Q13547); assay: HDAC1 inhibition, full IC50 measurement (Reaction Biology; fluorogenic p53 peptide RHKK(Ac)AMC); details: for HDAC1 activity raw data (signal): t1/t2 replicates
T3 construct: purchased Reaction Biology Corporation (assay run by the CRO)
Procedure, shortened: as §1

[4] = peptide conc. 1.00E-05 M, listed as des3.1.0_t1
[5] = peptide conc. 1.00E-05 M, listed as des3.1.0_t2
[6] = peptide conc. 1.11E-06 M, listed as des3.1.0_t1
[7] = peptide conc. 1.11E-06 M, listed as des3.1.0_t2
[8] = peptide conc. 1.23E-07 M, listed as des3.1.0_t1
[9] = peptide conc. 1.23E-07 M, listed as des3.1.0_t2
[10] = peptide conc. 1.37E-08 M, listed as des3.1.0_t1
[11] = peptide conc. 1.37E-08 M, listed as des3.1.0_t2
[12] = peptide conc. 1.52E-09 M, listed as des3.1.0_t1
[13] = peptide conc. 1.52E-09 M, listed as des3.1.0_t2
[14] = peptide conc. 3.33E-06 M, listed as des3.1.0_t1
[15] = peptide conc. 3.33E-06 M, listed as des3.1.0_t2
[16] = peptide conc. 3.70E-07 M, listed as des3.1.0_t1
[17] = peptide conc. 3.70E-07 M, listed as des3.1.0_t2
[18] = peptide conc. 4.12E-08 M, listed as des3.1.0_t1
[19] = peptide conc. 4.12E-08 M, listed as des3.1.0_t2
[20] = peptide conc. 4.57E-09 M, listed as des3.1.0_t1
[21] = peptide conc. 4.57E-09 M, listed as des3.1.0_t2
[22] = peptide conc. 5.08E-10 M, listed as des3.1.0_t1
[23] = peptide conc. 5.08E-10 M, listed as des3.1.0_t2

T3 sequence (Q13547 whole entry): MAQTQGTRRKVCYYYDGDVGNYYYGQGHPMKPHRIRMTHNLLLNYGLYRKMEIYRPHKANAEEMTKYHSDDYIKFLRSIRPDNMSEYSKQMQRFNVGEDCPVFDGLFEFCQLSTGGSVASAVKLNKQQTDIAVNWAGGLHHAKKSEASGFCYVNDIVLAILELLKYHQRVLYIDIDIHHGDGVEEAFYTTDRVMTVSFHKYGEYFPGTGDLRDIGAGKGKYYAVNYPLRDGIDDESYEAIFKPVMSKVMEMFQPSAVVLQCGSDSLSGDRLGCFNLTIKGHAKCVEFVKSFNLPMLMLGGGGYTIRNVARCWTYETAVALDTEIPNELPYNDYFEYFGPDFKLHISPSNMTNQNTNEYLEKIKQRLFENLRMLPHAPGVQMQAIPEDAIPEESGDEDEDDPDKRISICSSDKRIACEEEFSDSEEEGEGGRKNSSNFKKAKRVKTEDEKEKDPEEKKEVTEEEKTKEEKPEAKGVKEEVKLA

Compound: N=C(N)NCCC[C@H]1NC(=O)[C@@H]2CCCN2C(=O)[C@H](CO)NC(=O)[C@@H](Cc2c[nH]cn2)NC(=O)[C@H](CCCCCS)NC(=O)[C@H](CCCCN)NC(=O)[C@H](Cc2ccc(O)cc2)NC(=O)[C@H]2CCCN2C(=O)[C@@H](CCC(N)=O)NC1=O [des3.1.0, SHA-dHis-Ser-Pro-dArg-dGln-dPro-Tyr-Lys] (HELM PEPTIDE1{K.[O=C([C@H](CCCCCS)N[*:1])[*:2]].[dH].S.P.[dR].[dQ].[dP].Y}$PEPTIDE1,PEPTIDE1,1:R1-9:R2$$$V2.0)
HDAC8 activity raw data (signal) [1, 4]: 177071 | HDAC8 activity raw data (signal) [1, 5]: 217357 | HDAC8 activity raw data (signal) [1, 6]: 702584 | HDAC8 activity raw data (signal) [1, 7]: 678372 | HDAC8 activity raw data (signal) [1, 8]: 829409 | HDAC8 activity raw data (signal) [1, 9]: 942877 | HDAC8 activity raw data (signal) [1, 10]: 914161 | HDAC8 activity raw data (signal) [1, 11]: 1065224 | HDAC8 activity raw data (signal) [1, 12]: 932207 | HDAC8 activity raw data (signal) [1, 13]: 1002240 | HDAC8 activity raw data (signal) [1, 14]: 396779 | HDAC8 activity raw data (signal) [1, 15]: 364112 | HDAC8 activity raw data (signal) [1, 16]: 821171 | HDAC8 activity raw data (signal) [1, 17]: 831364 | HDAC8 activity raw data (signal) [1, 18]: 888545 | HDAC8 activity raw data (signal) [1, 19]: 997244 | HDAC8 activity raw data (signal) [1, 20]: 750196 | HDAC8 activity raw data (signal) [1, 21]: 946901 | HDAC8 activity raw data (signal) [1, 22]: 807432 | HDAC8 activity raw data (signal) [1, 23]: 990498 | HDAC6 activity raw data (signal) ([2]; Conc. 1.00E-05 M, t1): 11537 | HDAC6 activity raw data (signal) ([2]; Conc. 1.00E-05 M, t2): 13038 | HDAC6 activity raw data (signal) ([2]; Conc. 1.11E-06 M, t1): 76742 | HDAC6 activity raw data (signal) ([2]; Conc. 1.11E-06 M, t2): 90822 | HDAC6 activity raw data (signal) ([2]; Conc. 1.23E-07 M, t1): 159657 | HDAC6 activity raw data (signal) ([2]; Conc. 1.23E-07 M, t2): 168002 | HDAC6 activity raw data (signal) ([2]; Conc. 1.37E-08 M, t1): 160112 | HDAC6 activity raw data (signal) ([2]; Conc. 1.37E-08 M, t2): 166776 | HDAC6 activity raw data (signal) ([2]; Conc. 1.52E-09 M, t1): 119928 | HDAC6 activity raw data (signal) ([2]; Conc. 1.52E-09 M, t2): 158551 | HDAC6 activity raw data (signal) ([2]; Conc. 3.33E-06 M, t1): 37434 | HDAC6 activity raw data (signal) ([2]; Conc. 3.33E-06 M, t2): 38190 | HDAC6 activity raw data (signal) ([2]; Conc. 3.70E-07 M, t1): 143033 | HDAC6 activity raw data (signal) ([2]; Conc. 3.70E-07 M, t2): 130317 | HDAC6 activity raw data (signal) ([2]; Conc. 4.12E-08 M, t1): 144961 | HDAC6 activity raw data (signal) ([2]; Conc. 4.12E-08 M, t2): 163766 | HDAC6 activity raw data (signal) ([2]; Conc. 4.57E-09 M, t1): 147758 | HDAC6 activity raw data (signal) ([2]; Conc. 4.57E-09 M, t2): 164399 | HDAC6 activity raw data (signal) ([2]; Conc. 5.08E-10 M, t1): 111941 | HDAC6 activity raw data (signal) ([2]; Conc. 5.08E-10 M, t2): 129043 | HDAC1 activity raw data (signal) [3, 4]: 22305 | HDAC1 activity raw data (signal) [3, 5]: 40732 | HDAC1 activity raw data (signal) [3, 6]: 248828 | HDAC1 activity raw data (signal) [3, 7]: 188355 | HDAC1 activity raw data (signal) [3, 8]: 589648 | HDAC1 activity raw data (signal) [3, 9]: 563314 | HDAC1 activity raw data (signal) [3, 10]: 723592 | HDAC1 activity raw data (signal) [3, 11]: 777320 | HDAC1 activity raw data (signal) [3, 12]: 783325 | HDAC1 activity raw data (signal) [3, 13]: 856547 | HDAC1 activity raw data (signal) [3, 14]: 76346 | HDAC1 activity raw data (signal) [3, 15]: 86885 | HDAC1 activity raw data (signal) [3, 16]: 352482 | HDAC1 activity raw data (signal) [3, 17]: 387684 | HDAC1 activity raw data (signal) [3, 18]: 725312 | HDAC1 activity raw data (signal) [3, 19]: 693516 | HDAC1 activity raw data (signal) [3, 20]: 787632 | HDAC1 activity raw data (signal) [3, 21]: 874002 | HDAC1 activity raw data (signal) [3, 22]: 778120 | HDAC1 activity raw data (signal) [3, 23]: 831348

HDAC8 raw activity signal ([1]; Conc. 1.00E-05 M): 485885 | HDAC8 raw activity signal ([1]; Conc. 1.11E-06 M): 715893 | HDAC8 raw activity signal ([1]; Conc. 1.23E-07 M): 664184 | HDAC8 raw activity signal ([1]; Conc. 1.37E-08 M): 813063 | HDAC8 raw activity signal ([1]; Conc. 1.52E-09 M): 850527 | HDAC8 raw activity signal ([1]; Conc. 3.33E-06 M): 572309 | HDAC8 raw activity signal ([1]; Conc. 3.70E-07 M): 755715 | HDAC8 raw activity signal ([1]; Conc. 4.12E-08 M): 855669 | HDAC8 raw activity signal ([1]; Conc. 4.57E-09 M): 817878 | HDAC8 raw activity signal ([1]; Conc. 5.08E-10 M): 743919 | HDAC6 raw activity signal ([2]; Conc. 1.00E-05 M): 33328 | HDAC6 raw activity signal ([2]; Conc. 1.11E-06 M): 230710 | HDAC6 raw activity signal ([2]; Conc. 1.23E-07 M): 527992 | HDAC6 raw activity signal ([2]; Conc. 1.37E-08 M): 589576 | HDAC6 raw activity signal ([2]; Conc. 1.52E-09 M): 605039 | HDAC6 raw activity signal ([2]; Conc. 3.33E-06 M): 100537 | HDAC6 raw activity signal ([2]; Conc. 3.70E-07 M): 381738 | HDAC6 raw activity signal ([2]; Conc. 4.12E-08 M): 574853 | HDAC6 raw activity signal ([2]; Conc. 4.57E-09 M): 596934 | HDAC6 raw activity signal ([2]; Conc. 5.08E-10 M): 614098 | IC50 ([2]; read-out: HDAC6 IC50): 600 nM | HDAC1 raw activity signal ([3]; Conc. 1.00E-05 M): 155805 | HDAC1 raw activity signal ([3]; Conc. 1.11E-06 M): 648714 | HDAC1 raw activity signal ([3]; Conc. 1.23E-07 M): 748850 | HDAC1 raw activity signal ([3]; Conc. 1.37E-08 M): 768411 | HDAC1 raw activity signal ([3]; Conc. 1.52E-09 M): 737474 | HDAC1 raw activity signal ([3]; Conc. 3.33E-06 M): 525567 | HDAC1 raw activity signal ([3]; Conc. 3.70E-07 M): 713862 | HDAC1 raw activity signal ([3]; Conc. 4.12E-08 M): 763721 | HDAC1 raw activity signal ([3]; Conc. 4.57E-09 M): 780017 | HDAC1 raw activity signal ([3]; Conc. 5.08E-10 M): 759317
Compound: N[C@@H](CCCCCS)C(=O)O [SHA, 2S-2-amino-7-sulfanylheptanoic acid]
HDAC8 inhibition potency in words [1]: low micro-molar to high nano-molar affinities | HDAC6 inhibition potency in words [2]: low micro-molar to high nano-molar affinities | HDAC1 inhibition potency in words [3]: low micro-molar to high nano-molar affinities
